Laboratory results reported in PubChem BioAssay AID2060901 (Molecular Pharmacology Branch, DTP, NCI, 2025).

System: 422866-222-R5-J1-PDC complex spheroids viability
Assay: Anticancer human tumor 422866-222-R5-J1-PDC patient-derived pancreatic adenocarcinoma cell line growth inhibition [RAS]
Details: for IC50: curve of first compound; for viability, T/C: stronger effect = lower value
In short: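 Multi-cell-type spheroids: tumor cells plus HUVEC endothelial cells and mesenchymal stem cells. RAS-pathway inhibitors were combined with targeted agents, each dosed in half-log steps down from clinical Cmax, or from 10 microM when Cmax was unknown.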

[1] = second compound 0.000949 µM, first compound 0.00316 µM
[2] = second compound 0.000949 µM, first compound 0.01 µM
[3] = second compound 0.000949 µM, first compound 0.0316 µM
[4] = second compound 0.000949 µM, first compound 0.1 µM
[5] = second compound 0.000949 µM, first compound 0.316 µM
[6] = second compound 0.000949 µM, first compound 1 µM
[7] = second compound 0.003 µM, first compound 0.00316 µM
[8] = second compound 0.003 µM, first compound 0.01 µM
[9] = second compound 0.003 µM, first compound 0.0316 µM
[10] = second compound 0.003 µM, first compound 0.1 µM
[11] = second compound 0.003 µM, first compound 0.316 µM
[12] = second compound 0.003 µM, first compound 1 µM
[13] = second compound 0.00949 µM, first compound 0.00316 µM
[14] = second compound 0.00949 µM, first compound 0.01 µM
[15] = second compound 0.00949 µM, first compound 0.0316 µM
[16] = second compound 0.00949 µM, first compound 0.1 µM
[17] = second compound 0.00949 µM, first compound 0.316 µM
[18] = second compound 0.00949 µM, first compound 1 µM
[19] = second compound 0.03 µM, first compound 0.00316 µM
[20] = second compound 0.03 µM, first compound 0.01 µM
[21] = second compound 0.03 µM, first compound 0.0316 µM
[22] = second compound 0.03 µM, first compound 0.1 µM
[23] = second compound 0.03 µM, first compound 0.316 µM
[24] = second compound 0.03 µM, first compound 1 µM
[25] = second compound 0.0949 µM, first compound 0.00316 µM
[26] = second compound 0.0949 µM, first compound 0.01 µM
[27] = second compound 0.0949 µM, first compound 0.0316 µM
[28] = second compound 0.0949 µM, first compound 0.1 µM
[29] = second compound 0.0949 µM, first compound 0.316 µM
[30] = second compound 0.0949 µM, first compound 1 µM
[31] = second compound 0.3 µM, first compound 0.00316 µM
[32] = second compound 0.3 µM, first compound 0.01 µM
[33] = second compound 0.3 µM, first compound 0.0316 µM
[34] = second compound 0.3 µM, first compound 0.1 µM
[35] = second compound 0.3 µM, first compound 0.316 µM
[36] = second compound 0.3 µM, first compound 1 µM
[37] = second compound 0.000949 µM, first compound 3.16 µM
[38] = second compound 0.000949 µM, first compound 10 µM
[39] = second compound 0.003 µM, first compound 3.16 µM
[40] = second compound 0.003 µM, first compound 10 µM
[41] = second compound 0.00949 µM, first compound 3.16 µM
[42] = second compound 0.00949 µM, first compound 10 µM
[43] = second compound 0.03 µM, first compound 3.16 µM
[44] = second compound 0.03 µM, first compound 10 µM
[45] = second compound 0.0949 µM, first compound 3.16 µM
[46] = second compound 0.0949 µM, first compound 10 µM
[47] = second compound 0.3 µM, first compound 3.16 µM
[48] = second compound 0.3 µM, first compound 10 µM
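Note: spheroids exposed to compounds for 7 days.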
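Throughout, for viability, T/C: 100% = DMSO vehicle control viability.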

`C=CC(=O)Nc1cc(Nc2nccc(-c3cn(C)c4ccccc34)n2)c(OC)cc1N(C)CCN(C)C` + CCn1c(-c2cc(N3CCN(C)CC3)cnc2C(C)OC)c2c3cc(ccc31)-c1csc(n1)CC(NC(=O)C1CC1C)C(=O)N1CCCC(N1)C(=O)OCC(C)(C)C2 showed an IC50 (second compound 0.000949 µM) of under 3.16 nM, an IC50 (second compound 0.003 µM) of under 3.16 nM and an IC50 (second compound 0.00949 µM) of under 3.16 nM. The IC50 (second compound 0.03 µM) was under 3.16 nM, the IC50 (second compound 0.0949 µM) was under 3.16 nM and the IC50 (second compound 0.3 µM) was under 3.16 nM. It also gave a viability, T/C [1] of 32.2%, a viability, T/C [2] of 25.2% and a viability, T/C [3] of 26.4%. For the same compound, the viability, T/C [4] was 21.6%, the viability, T/C [5] was 23.1% and the viability, T/C [6] was 24.7%. The viability, T/C [7] was 26.1%, the viability, T/C [8] was 20.3% and the viability, T/C [9] was 20.2%. For the same compound, the viability, T/C [10] was 17.2%, the viability, T/C [11] was 16.4% and the viability, T/C [12] was 18.9%. The viability, T/C [13] was 20.4%, the viability, T/C [14] was 17.9% and the viability, T/C [15] was 17%. It also gave a viability, T/C [16] of 14.1%, a viability, T/C [17] of 14.5% and a viability, T/C [18] of 17.1%. For the same compound, the viability, T/C [19] was 19.9%, the viability, T/C [20] was 18.6% and the viability, T/C [21] was 16.8%. For the same compound, the viability, T/C [22] was 14.4%, the viability, T/C [23] was 15.1% and the viability, T/C [24] was 15.6%. The viability, T/C [25] was 20%, the viability, T/C [26] was 17.4% and the viability, T/C [27] was 19.2%. It also gave a viability, T/C [28] of 16.9%, a viability, T/C [29] of 16.1% and a viability, T/C [30] of 18.7%. It also gave a viability, T/C [31] of 19.3%, a viability, T/C [32] of 20.9% and a viability, T/C [33] of 19.1%. The viability, T/C [34] was 16.5%, the viability, T/C [35] was 16.5% and the viability, T/C [36] was 20.8%.
`CC(C)NCC(C(=O)N1CCN(c2ncnc3c2C(C)CC3O)CC1)c1ccc(Cl)cc1` (stereo not drawn) + CCn1c(-c2cc(N3CCN(C)CC3)cnc2C(C)OC)c2c3cc(ccc31)-c1csc(n1)CC(NC(=O)C1CC1C)C(=O)N1CCCC(N1)C(=O)OCC(C)(C)C2 showed an IC50 (second compound 0.000949 µM) of under 31.6 nM, an IC50 (second compound 0.003 µM) of under 31.6 nM and an IC50 (second compound 0.00949 µM) of under 31.6 nM. It also gave an IC50 (second compound 0.03 µM) of under 31.6 nM, an IC50 (second compound 0.0949 µM) of under 31.6 nM and an IC50 (second compound 0.3 µM) of under 31.6 nM. For the same compound, the viability, T/C [3] was 29.7%, the viability, T/C [4] was 25.9% and the viability, T/C [5] was 20.5%. For the same compound, the viability, T/C [6] was 21.1%, the viability, T/C [37] was 27.7% and the viability, T/C [38] was 33.9%. The viability, T/C [9] was 25.2%, the viability, T/C [10] was 20.6% and the viability, T/C [11] was 17.4%. The viability, T/C [12] was 13.4%, the viability, T/C [39] was 17.8% and the viability, T/C [40] was 17.7%. The viability, T/C [15] was 20.4%, the viability, T/C [16] was 15.2% and the viability, T/C [17] was 14.7%. The viability, T/C [18] was 11.6%, the viability, T/C [41] was 14.1% and the viability, T/C [42] was 15.7%. For the same compound, the viability, T/C [21] was 20.1%, the viability, T/C [22] was 15.8% and the viability, T/C [23] was 14.9%. The viability, T/C [24] was 11.9%, the viability, T/C [43] was 11.9% and the viability, T/C [44] was 13.8%. For the same compound, the viability, T/C [27] was 16.5%, the viability, T/C [28] was 17.4% and the viability, T/C [29] was 13.1%. The viability, T/C [30] was 11.7%, the viability, T/C [45] was 12.4% and the viability, T/C [46] was 13.8%. It also gave a viability, T/C [33] of 18.8%, a viability, T/C [34] of 19.6% and a viability, T/C [35] of 14.2%. It also gave a viability, T/C [36] of 11.5%, a viability, T/C [47] of 12.9% and a viability, T/C [48] of 13.8%.
Work on `CC(Nc1ccc2c(c1)OCCn1cc(N3C(=O)OCC3C(F)F)nc1-2)C(N)=O` (stereo not drawn) + CCn1c(-c2cc(N3CCN(C)CC3)cnc2C(C)OC)c2c3cc(ccc31)-c1csc(n1)CC(NC(=O)C1CC1C)C(=O)N1CCCC(N1)C(=O)OCC(C)(C)C2 yielded an IC50 (second compound 0.000949 µM) of under 31.6 nM, an IC50 (second compound 0.003 µM) of under 31.6 nM and an IC50 (second compound 0.00949 µM) of under 31.6 nM. It also gave an IC50 (second compound 0.03 µM) of under 31.6 nM, an IC50 (second compound 0.0949 µM) of under 31.6 nM and an IC50 (second compound 0.3 µM) of under 31.6 nM. It also gave a viability, T/C [3] of 24.6%, a viability, T/C [4] of 19% and a viability, T/C [5] of 13%. The viability, T/C [6] was 11.9%, the viability, T/C [37] was 9.45% and the viability, T/C [38] was 10.7%. For the same compound, the viability, T/C [9] was 16.9%, the viability, T/C [10] was 14.2% and the viability, T/C [11] was 9.14%. It also gave a viability, T/C [12] of 8.16%, a viability, T/C [39] of 6.87% and a viability, T/C [40] of 5.82%. The viability, T/C [15] was 16.1%, the viability, T/C [16] was 12.1% and the viability, T/C [17] was 9.35%. The viability, T/C [18] was 6.74%, the viability, T/C [41] was 5.6% and the viability, T/C [42] was 4.57%. It also gave a viability, T/C [21] of 13.4%, a viability, T/C [22] of 11.8% and a viability, T/C [23] of 9.06%. The viability, T/C [24] was 6.27%, the viability, T/C [43] was 5.7% and the viability, T/C [44] was 4.35%. For the same compound, the viability, T/C [27] was 15.5%, the viability, T/C [28] was 12.1% and the viability, T/C [29] was 8.62%. The viability, T/C [30] was 6.05%, the viability, T/C [45] was 5.83% and the viability, T/C [46] was 4.73%. It also gave a viability, T/C [33] of 13.9%, a viability, T/C [34] of 11.8% and a viability, T/C [35] of 10.2%. The viability, T/C [36] was 6.6%, the viability, T/C [47] was 5.26% and the viability, T/C [48] was 4.96%.
For `O=C(c1ccc(F)c(F)c1Nc1ccc(I)cc1F)N1CC(O)([C@@H]2CCCCN2)C1` + CCn1c(-c2cc(N3CCN(C)CC3)cnc2C(C)OC)c2c3cc(ccc31)-c1csc(n1)CC(NC(=O)C1CC1C)C(=O)N1CCCC(N1)C(=O)OCC(C)(C)C2, the IC50 (second compound 0.000949 µM) was under 3.16 nM, the IC50 (second compound 0.003 µM) was under 3.16 nM and the IC50 (second compound 0.00949 µM) was under 3.16 nM. The IC50 (second compound 0.03 µM) was under 3.16 nM, the IC50 (second compound 0.0949 µM) was under 3.16 nM and the IC50 (second compound 0.3 µM) was under 3.16 nM. It also gave a viability, T/C [1] of 30.9%, a viability, T/C [2] of 27.3% and a viability, T/C [3] of 21.8%. The viability, T/C [4] was 20.4%, the viability, T/C [5] was 15% and the viability, T/C [6] was 14.4%. The viability, T/C [7] was 22.9%, the viability, T/C [8] was 19.1% and the viability, T/C [9] was 16.2%. The viability, T/C [10] was 13.3%, the viability, T/C [11] was 13.4% and the viability, T/C [12] was 15.1%. For the same compound, the viability, T/C [13] was 16%, the viability, T/C [14] was 14.8% and the viability, T/C [15] was 14.5%. It also gave a viability, T/C [16] of 11.9%, a viability, T/C [17] of 11.9% and a viability, T/C [18] of 13.6%. It also gave a viability, T/C [19] of 14.3%, a viability, T/C [20] of 13.4% and a viability, T/C [21] of 13.2%. For the same compound, the viability, T/C [22] was 13.8%, the viability, T/C [23] was 13.9% and the viability, T/C [24] was 14.9%. For the same compound, the viability, T/C [25] was 15.2%, the viability, T/C [26] was 16% and the viability, T/C [27] was 13.4%. For the same compound, the viability, T/C [28] was 13.8%, the viability, T/C [29] was 14.5% and the viability, T/C [30] was 15.3%. It also gave a viability, T/C [31] of 16.7%, a viability, T/C [32] of 14.9% and a viability, T/C [33] of 15%. For the same compound, the viability, T/C [34] was 15.1%, the viability, T/C [35] was 15.7% and the viability, T/C [36] was 15.6%.
